Among the data in US7202239B2, “Cyclohexylphenyl carboxamides tocolytic oxytocin receptor antagonists” (Wyeth, priority 2001, dated 2007) are inhibition, melting point and IC50 values, retold here.

In data set [1] the target is human vasopressin V1a receptor subtype (Homo sapiens, UniProt P37288). Nature of the data set: Vasopressin binding in CHO cell membranes expressing human vasopressin V1a subtype receptors. The settings on record: [3H]Manning ligand; for inhibition at 0.1 µM: 100 nM; for IC50: value in parentheses. The source says:
Vasopressin Binding in Chinese Hamster Ovary Cell Membranes Expressing Human Vasopressin V1a Subtype Receptors
Chinese hamster ovary cells (CHO cells) stably transfected with the human vasopressin V1a subtype receptors were either obtained from Biosignal Inc., 1744 rue Williams, Montreal, Quebec, Canada or obtained from M. Thibonnier, Case Western Reserve University School of Medicine, Cleveland, Ohio. A. Passaging and Amplification of Cells: CHO cells transfected with the human vasopressin V1a subtype receptors obtained from M. Thibonnier (pZeoSV vector) are allowed to grow to confluency (approx. >90%) in T-150 flasks under sterile conditions, in a cell culture medium of F-12 Nutrient Mixture (HAM) with L-glutamine (Gibco Cat. # 11765-054) containing 15 mM HEPES (Gibco Cat. 15630-080), 1% antibiotic/antimycotic (add 5 mL 100×, Gibco Cat. 15240-062 per 500 mL F-12), 250 μg/mL Zeocin (add 1.25 mL of 100 mg/mL Invitrogen R-250-01 per 500 mL F-12) and 10% Fetal Bovine Serum (Qualified, heat inactivated, Gibco Cat. # 16140-063). The medium is removed by aspiration and the cells are washed with 10 mL of Hank's Balanced Salt solution (Gibco Cat. # 14175-095). The salt solution is removed by aspiration and the cells are trypsinized with 5 mL of trypsin-EDTA (0.05% trypsin, 0.53 mM EDTA-4Na, Gibco Cat. # 25300-070) for 1 min. The trypsin is removed by aspiration and the cells dislodged by tapping. Cell Culture medium (eg, 30 mL for 1:30 split) is immediately added and mixed well to inactivate trypsin. 1 mL of detached cells is added to new culture flasks containing fresh cell culture medium (eg, into 25 mL per T-150 flask), and mixed gently. The cells are incubated at 37° C. in 5% CO2. The medium is changed at 3 to 4 days interval (or as appropriate). The cells grow to confluency (approx. >75%–95%) within 7–8 days. All steps are done under sterile conditions. B. Membrane Preparation: The cells are washed twice gently with Hank's Balanced Salt solution (e.g,. use 10 mL per T-150 flask). The excess is removed and the cells are bathed for 15–30 min. in an enzyme-free Cell Dissociation Buffer (e.g. use 8 mL Hank's Based, Gibco Cat. # 13150-016 per T-150 flask) until the cells are loosened. The contents are transferred to centrifuge tubes (50 mL) kept in an ice bath. All subsequent steps are done at 4° C. The tubes are centrifuged at 300×g for 15 min (1380 rpm on SORVAL, Model RT6000D, using rotor for the 50 mL tubes). The supernatant is discarded and the cells suspended in homogeneizing buffer(10 mM Tris-HCl containing 0.25 M sucrose and 1 mM EDTA, pH 7.4) ensuring that the volume of the buffer is about ten times the volume of the cell pellet. The cells are pooled into a centrifuge tube (50 mL) and homogenized with Polytron at setting 6 for 10 sec. The homogenate is transferred into a Potter-Elvjehm homogenizer and homogenized with 3 strokes. The homogenate is centrifuged at 1500× g for 10 min at 4° C. (3100 rpm using SORVAL, model RT6000D, using the rotor for 50 mL tubes). The pellet is discarded. The supernatant is centrifuged at 100,000×g for 60 min. at 4° C. (Beckman L8-80M ultracentrifuge; spin at 37,500 rpm with rotor type 70 Ti for 50 mL tubes; 38,000 rpm with type 80Ti for 15 mL tubes; or 35,800 rpm with rotor type 45Ti). The supernantant is discarded and the pellet suspended in 3 to 4 mL of Tris buffer (50 mM TRIS-HCl, pH 7.4). The protein content is estimated by the Bradford or Lowry method. The volume of the membrane suspension is adjusted with the membrane buffer (50 mM Tris-HCl containing 0.1% BSA and 0.1 mM PMSF) to give 3.0 mg/mL (or as appropriate) of protein. The membranes are aliquoted and stored at −70° C. C. […]

human vasopressin V1a receptor subtype, sequence (P37288 whole entry): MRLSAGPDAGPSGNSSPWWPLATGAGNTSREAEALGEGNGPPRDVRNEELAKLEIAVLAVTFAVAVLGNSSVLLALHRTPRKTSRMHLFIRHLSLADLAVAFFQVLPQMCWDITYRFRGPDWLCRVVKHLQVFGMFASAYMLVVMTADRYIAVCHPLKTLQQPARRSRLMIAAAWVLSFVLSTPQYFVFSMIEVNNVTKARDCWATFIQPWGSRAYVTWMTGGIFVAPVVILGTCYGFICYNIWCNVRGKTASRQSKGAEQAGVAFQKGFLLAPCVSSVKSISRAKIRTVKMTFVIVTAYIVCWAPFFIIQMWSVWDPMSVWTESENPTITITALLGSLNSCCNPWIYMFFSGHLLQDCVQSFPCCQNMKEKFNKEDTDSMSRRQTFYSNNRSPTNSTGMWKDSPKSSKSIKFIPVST

By inhibition is commonly meant the relative decrease from the control value, in per cent. Broadly, the melting point is the temperature of the solid-liquid transition. Regarding `Cc1ccccc1N1CCN(C(=O)c2ccc3n2Cc2ccccc2N(C(=O)c2ccc(C4CCCCC4)cc2)C3)CC1` [Example 27, [10-(4-Cyclohexyl-benzoyl)-10,11-dihydro-5H-pyrrolo[2,1-c][1,4]benzodiazepin-3-yl][4-(2-methylphenyl)-1-piperazinyl]-methanone], the melting point fell in the range of 141 to 143 °C. Besides, the inhibition at 0.1 µM in data set [1] is 6%.
As usually defined, the IC50 is the midpoint of a concentration-inhibition curve. On to `CN(C)NC(=O)c1ccc2n1Cc1ccccc1N(C(=O)c1ccc(C3CCCCC3)cc1)C2` [Example 19, 10-(4-Cyclohexyl-benzoyl)-N′-N′-dimethyl-10,11-dihydro-5H-pyrrolo[2,1-c][1,4]benzodiazepine-3-carbohydrazide], for which the melting point lay in the range of 182 to 183 °C. The IC50 in data set [1] was determined as 880 nM.
`CN(C)/C=N/C(=O)c1ccc2n1Cc1ccccc1N(C(=O)c1ccc(C3CCCCC3)cc1)C2` [Example 17] displayed a melting point of 216 to 218 °C. Further, the IC50 in data set [1] was 306 nM.
`O=C(c1ccc(C2CCCCC2)cc1)N1Cc2ccc(C(=O)C(Cl)(Cl)Cl)n2Cc2ccccc21` [Example 7, 2,2,2-Trichloro-1-[10-(4-cyclohexyl-benzoyl)-10,11-dihydro-5H-pyrrolo[2,1-c][1,4]benzodiazepin-3-yl]-1-ethanone] had a melting point of 172 to 174 °C. Moreover, in data set [1], the inhibition at 0.1 µM turned out to be 4%.
Regarding `C/C(=N\C(=O)c1ccc2n1Cc1ccccc1N(C(=O)c1ccc(C3CCCCC3)cc1)C2)N(C)C` [Example 18], the melting point fell in the range of 128 to 131 °C. The IC50 in data set [1] was 87.5 nM.
For the compound `COC(=O)c1ccc2c(c1)N(C(=O)c1ccc(C3CCCCC3)cc1)Cc1ccc(C(=O)N3CCN(C)CC3)n1C2.Cl` [Example 1, Methyl 10-(4-cyclohexylbenzoyl)-3-[(4-methyl-1-piperazinyl)carbonyl]-10,11-dihydro-5H-pyrrolo[2,1-c][1,4]benzodiazepine-8-carboxylate hydrochloride salt], the melting point is 203 °C (dec.). Moreover, the inhibition at 0.1 µM in data set [1] was -7%.
The compound `CC(C)(C)c1ccc(C(=O)c2ccc3n2Cc2ccccc2N(C(=O)c2ccc(C4CCCCC4)cc2)C3)cc1` [Example 5, [4-(tert-Butyl)phenyl][10-(4-cyclohexyl-benzoyl)-10,11-dihydro-5H-pyrrolo[2,1-c][1,4]benzodiazepin-3-yl]methanone] showed a melting point of 143 to 145 °C. For the same compound, the inhibition at 0.1 µM in data set [1] was 3%.
The compound `CC(=NNC(=O)c1ccc2n1Cc1ccccc1N(C(=O)c1ccc(C3CCCCC3)cc1)C2)N(C)C` [Example 9, N′-{[10-(4-Cyclohexyl-benzoyl)-10,11-dihydro-5H-pyrrolo[2,1-c][1,4]benzodiazepin-3-yl]carbonyl}-N,N-dimethylethanehydrazonamide] displayed a melting point of 164 to 175 °C. In addition, the IC50 in data set [1] is 146 nM.
For `CN1CCN(C(=O)c2ccc3n2Cc2ccccc2N(C(=O)c2ccc(C4CCCCC4)cc2)C3)CC1` [Example 24, [10-(4-Cyclohexyl-benzoyl)-10,11-dihydro-5H-pyrrolo[2,1-c][1,4]benzodiazepin-3-yl](4-methyl-1-piperazinyl)-methanone], in that order: 134 to 136 °C and 203 nM.
As for `CN1CCN(C(=O)c2ccc3n2Cc2ccc(C(=O)O)cc2N(C(=O)c2ccc(C4CCCCC4)cc2)C3)CC1` [Example 3, 10-(4-Cyclohexyl-benzoyl)-3-[(4-methyl-1-piperazinyl)carbonyl]-10,11-dihydro-5H-pyrrolo[2,1-c][1,4]benzodiazepine-8-carboxylic acid], the melting point was 195 to 210 °C. Also, in data set [1], the inhibition at 0.1 µM was -19%.
Regarding `NC(=O)c1ccc2n1Cc1ccccc1N(C(=O)c1ccc(C3CCCCC3)cc1)C2` [Example 16, 10-(4-Cyclohexyl-benzoyl)-10,11-dihydro-5H-pyrrolo[2,1-c][1,4]benzodiazepin-3-carboxamide], the melting point was in the range of 122 to 123 °C. In data set [1], the IC50 worked out at 377 nM.
For `CN(C)C=NNC(=O)c1ccc2n1Cc1ccccc1N(C(=O)c1ccc(C3CCCCC3)cc1)C2` [Example 10, N′-{[10-(4-Cyclohexyl-benzoyl)-10,11-dihydro-5H-pyrrolo[2,1-c][1.4]benzodiazepin-3-yl]carbonyl}-N,N-dimethylhydrazonoformamide], in that order: 167 to 190 °C and 366 nM.
